In PubChem BioAssay (NCI):
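Cultured in 96-well plates, cells were exposed to test compound for 48 hours across five concentrations. GI50 marks 50% less growth. The concentration for full growth arrest is given as TGI.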

Experiments:
Test in all cases: inhibition of tumour cell growth, NCI panel, 48 h
[1] = test system: BT-549 breast
[2] = test system: CAKI-1 renal
[3] = test system: K-562 leukemia
[4] = test system: MDA-MB-231 breast
[5] = test system: MDA-MB-435
[6] = test system: NCI-H522 lung
[7] = test system: OVCAR-8 ovarian
[8] = test system: SK-MEL-2 melanoma
[9] = test system: SK-MEL-28 melanoma
[10] = test system: SNB-19 CNS

SMILES | TGI [1] [µM] | TGI [2] [µM] | TGI [3] [µM] | TGI [4] [µM] | TGI [5] [µM] | TGI [6] [µM] | TGI [7] [µM] | TGI [8] [µM] | TGI [9] [µM] | TGI [10] [µM] | GI50 [1] [µM] | GI50 [2] [µM] | GI50 [4] [µM] | GI50 [5] [µM] | GI50 [6] [µM] | GI50 [7] [µM] | GI50 [8] [µM] | GI50 [9] [µM] | GI50 [10] [µM]
O=P(O)(O)CN1CCNCCN(CP(=O)(O)O)CCNCC1 | > 100 | > 100 | > 100 | > 100 | > 100 | > 100 | > 83.6 | > 100 | > 100 | > 100 |  |  |  |  |  |  |  |  | 
C=C1CC(Cn2cc(Br)c(=O)[nH]c2=O)(c2ccc(-c3ccccc3)cc2)OC1=O (stereo not drawn) | 3.31 | 4.41 | > 100 | 9 | 2.36 | 2.55 | 4.29 | 3.26 | 0.671 | 26.8 |  |  |  |  |  |  |  |  | 
O=S1(=O)CCN(c2ccccc2CC(c2c[nH]c3ccccc23)c2c[nH]c3ccccc23)CC1 | 37.3 | > 85.2 | 45.1 | 25.1 | > 31.7 | 17.2 | 39.7 | 21.1 | 28.8 | > 100 |  |  |  |  |  |  |  |  | 
COc1ccc(C=Nc2ccc(-c3nc4ccccc4[nH]3)cc2)cc1OC | > 100 | > 100 | > 100 | > 100 | > 100 | > 100 | > 100 | > 100 | > 100 | > 100 |  |  |  |  |  |  |  |  | 
O=C1C=C(N2CCN(c3ccccn3)CC2)C(=O)c2c(O)ccc(O)c21 | > 100 | > 46.4 | 36.2 | 44.9 | 1.75 | 41.2 | > 90.8 | 18.6 | > 56.2 | 78.6 |  |  |  |  |  |  |  |  | 
NS(=O)(=O)c1cc(S(N)(=O)=O)c(NC(=O)N(c2ccccc2)c2ccccc2)c(Cl)c1Cl | 36.1 | 65.2 | 81.4 | > 100 | 67.2 | 27.1 | 34.2 | 82.7 | > 100 | > 100 |  |  |  |  |  |  |  |  | 
CCCCCCCCCCCCCCCCOCC(Cl)COP(=O)(O)OP(=O)(O)OCC1OC(n2cnc3c(N)ncnc32)C(O)C1O (stereo not drawn) | > 100 | > 100 | > 100 | > 100 | > 100 | > 100 | > 100 | > 100 | > 100 | > 100 |  |  |  |  |  |  |  |  | 
COc1cc(-n2cc(-c3cc(O)c(C/C=C(\C)CCC=C(C)C)c(O)c3)nn2)cc2c1O[C@]1(C)CC[C@@H](O)C(C)(C)[C@H]1C2 | 20.5 | > 100 |  | 3.24 | 27.6 | 4.35 | > 66.4 | 11.5 | 27.6 | 40.3 | 0.974 | 0.43 | 0.275 | 1.22 | 1.19 | 3.17 | 0.672 | 0.754 | 1.89
C/C(=N\Nc1ccccc1)C(CN(C)C)C(c1ccccc1)c1c(O)c2ccccc2oc1=O (stereo not drawn) | > 100 | > 100 | > 100 | > 100 | > 100 | > 100 | > 100 | > 100 | > 100 | > 100 |  |  |  |  |  |  |  |  | 
NC(=O)C1=CC2C3C=CC2(O)C(=O)OC3O1 (stereo not drawn) | 17.3 | 17 | > 100 | 32 | 16.5 | 4.31 | 6.66 | > 40.2 | 8.48 | 60.9 |  |  |  |  |  |  |  |  | 
CCCNC(=O)CCC(C)[C@H]1CCC2C3C(C[C@H](OC(C)=O)[C@@]21C)[C@@]1(C)CCC2(C[C@H]1C[C@H]3OC(C)=O)OOC1(CCCCC1)OO2 (stereo partly drawn) | 12.4 | 1.54 | > 60.8 | 5.31 | 9.92 | 1.44 | 4.3 | 7.05 | > 100 | > 100 |  |  |  |  |  |  |  |  | 
COc1ccc(C(=O)c2ccc(-n3cc(/C=C/[N+](=O)[O-])c4ccccc43)cc2)cc1 | 33.7 | > 52.3 | > 100 | 43.9 | 49.3 | 33.8 | 45.2 | 58 | > 89.2 | > 72.4 |  |  |  |  |  |  |  |  | 
CCCCCCOP(=O)(OCCCCCC)OC(C(=O)OC)C(F)(F)F (stereo not drawn) | > 100 | > 100 | > 100 | > 100 | > 100 | > 100 | > 100 | > 100 | > 100 | > 100 |  |  |  |  |  |  |  |  | 
O=C1/C(=C\c2cccc(Oc3ccccc3)c2)SC(c2ccccc2)N1c1cccc([N+](=O)[O-])c1 (stereo not drawn) | > 100 | > 100 | > 100 | > 100 | > 100 | > 100 | > 100 | > 100 | > 100 | > 100 |  |  |  |  |  |  |  |  | 
O=C(/C=C/c1ccco1)c1cccc(C(=O)/C=C/c2ccco2)n1 | 78.4 | > 100 | > 100 | > 100 | > 100 | 19.6 | 8.83 | > 58.6 | 67.7 | > 48.8 |  |  |  |  |  |  |  |  | 
O=C1CSC2(CC(/C=C/c3ccccc3Br)=NN2c2cccc(S(=O)(=O)O)c2)N1c1nc2ccccc2s1 (stereo not drawn) | > 100 | > 100 | > 100 | > 100 | > 100 | > 100 | > 100 | > 100 | > 100 | > 100 |  |  |  |  |  |  |  |  | 
